For the data set, the system named is CCRIS mutagenicity, Ames/micronucleus/aberration tests. In words: CCRIS mutagenicity studies.
Where [1] appears, read: Test System: AMES SALMONELLA TYPHIMURIUM, Strain/Indicator: TA98, Metabolic Activation: NONE, Method: STANDARD PLATE.

Each structure is given as a SMILES string. Active and inactive are the calls of the source. No rule for the calls is given here.

In the case of `CN(C)c1ccc(N=Nc2ccc3ccccc3c2)cc1`, the mutagenic call (Test System: AMES SALMONELLA TYPHIMURIUM, Strain/Indicator: TA98, Metabolic Activation: HAMSTER, LIVER, S-9, AROCLOR 1254, Method: STANDARD PLATE) was “active; positive”; the mutagenic call (Test System: AMES SALMONELLA TYPHIMURIUM, Strain/Indicator: TA98, Metabolic Activation: HAMSTER, LIVER, S-9, Method: PREINCUBATION (PRIVAL METHOD)) was “active; positive”; the mutagenic call (Test System: AMES SALMONELLA TYPHIMURIUM, Strain/Indicator: TA98, Metabolic Activation: RAT, LIVER, S-9, AROCLOR 1254, HAMSTER, LIVER, S-9, AROCLOR 1254, Method: STANDARD PLATE) was “active; positive”; the mutagenic call (Test System: AMES SALMONELLA TYPHIMURIUM, Strain/Indicator: TA100, Metabolic Activation: HAMSTER, LIVER, S-9, Method: PREINCUBATION (PRIVAL METHOD)) was “active; positive”; the mutagenic call (Test System: AMES SALMONELLA TYPHIMURIUM, Strain/Indicator: TA1538, Metabolic Activation: RAT, LIVER, S-9, AROCLOR 1254, HAMSTER, LIVER, S-9, AROCLOR 1254, Method: STANDARD PLATE) was “active; positive”; the mutagenic call (Test System: MOUSE LYMPHOMA, Strain/Indicator: L5178Y (TK+/TK-), Metabolic Activation: RAT, LIVER, S-9, AROCLOR 1254, Method: SUSPENSION/PLATE) is “active; positive. reevaluation of results: positive”. Further, for the setting “Test System: Mouse lymphoma, Strain/Indicator: L5178Y (tk+/tk-), Metabolic Activation: None, Method: Suspension/plate”, the mutagenic call was “inactive; negative”.

As to `CN1CCC(CN2c3ccccc3Sc3ccccc32)C1` (stereo not drawn), the mutagenic call by setting is: (End Point: IN VITRO CHROMOSOMAL ABERRATIONS, Test System: CHINESE HAMSTER OVARY CELLS, Metabolic Activation: NONE) “inactive; negative”; (End Point: IN VITRO CHROMOSOMAL ABERRATIONS, Test System: CHINESE HAMSTER OVARY CELLS, Metabolic Activation: RAT, LIVER, S-9, AROCLOR 1254) “inactive; negative”; (Test System: AMES SALMONELLA TYPHIMURIUM, Strain/Indicator: TA97, Metabolic Activation: HAMSTER, LIVER, S-9, AROCLOR 1254 (10 OR 30%), Method: PREINCUBATION) “inactive; negative”; (Test System: AMES SALMONELLA TYPHIMURIUM, Strain/Indicator: TA97, Metabolic Activation: NONE, Method: PREINCUBATION) “inactive; negative”; (Test System: AMES SALMONELLA TYPHIMURIUM, Strain/Indicator: TA97, Metabolic Activation: RAT, LIVER, S-9, AROCLOR 1254 (10 OR 30%), Method: PREINCUBATION) “inactive; negative”; (Test System: AMES SALMONELLA TYPHIMURIUM, Strain/Indicator: TA98, Metabolic Activation: HAMSTER, LIVER, S-9, AROCLOR 1254 (10%), Method: PREINCUBATION) “inactive; negative”. Moreover, the mutagenic call is, setting by setting: (Test System: AMES SALMONELLA TYPHIMURIUM, Strain/Indicator: TA98, Metabolic Activation: HAMSTER, LIVER, S-9, AROCLOR 1254 (30%), Method: PREINCUBATION) “inactive; negative”; (Test System: AMES SALMONELLA TYPHIMURIUM, Strain/Indicator: TA98, Metabolic Activation: NONE, Method: PREINCUBATION) “inactive; negative”; (Test System: AMES SALMONELLA TYPHIMURIUM, Strain/Indicator: TA98, Metabolic Activation: RAT, LIVER, S-9, AROCLOR 1254 (10%), Method: PREINCUBATION) “inactive; negative”; (Test System: AMES SALMONELLA TYPHIMURIUM, Strain/Indicator: TA98, Metabolic Activation: RAT, LIVER, S-9, AROCLOR 1254 (30%), Method: PREINCUBATION) “inactive; negative”; (Test System: AMES SALMONELLA TYPHIMURIUM, Strain/Indicator: TA100, Metabolic Activation: HAMSTER, LIVER, S-9, AROCLOR 1254 (10%), Method: PREINCUBATION) “inactive; negative”; (Test System: AMES SALMONELLA TYPHIMURIUM, Strain/Indicator: TA100, Metabolic Activation: HAMSTER, LIVER, S-9, AROCLOR 1254 (30%), Method: PREINCUBATION) “inactive; negative”. Moreover, the mutagenic call is, setting by setting: (Test System: AMES SALMONELLA TYPHIMURIUM, Strain/Indicator: TA100, Metabolic Activation: NONE, Method: PREINCUBATION) “inactive; negative”; (Test System: AMES SALMONELLA TYPHIMURIUM, Strain/Indicator: TA100, Metabolic Activation: RAT, LIVER, S-9, AROCLOR 1254 (10%), Method: PREINCUBATION) “inactive; negative”; (Test System: AMES SALMONELLA TYPHIMURIUM, Strain/Indicator: TA100, Metabolic Activation: RAT, LIVER, S-9, AROCLOR 1254 (30%), Method: PREINCUBATION) “inactive; negative”; (Test System: AMES SALMONELLA TYPHIMURIUM, Strain/Indicator: TA1535, Metabolic Activation: HAMSTER, LIVER, S-9, AROCLOR 1254 (10%), Method: PREINCUBATION) “inactive; negative”; (Test System: AMES SALMONELLA TYPHIMURIUM, Strain/Indicator: TA1535, Metabolic Activation: HAMSTER, LIVER, S-9, AROCLOR 1254 (30%), Method: PREINCUBATION) “inactive; negative”; (Test System: AMES SALMONELLA TYPHIMURIUM, Strain/Indicator: TA1535, Metabolic Activation: NONE, Method: PREINCUBATION) “inactive; negative”. The mutagenic call was “inactive; negative” (Test System: AMES SALMONELLA TYPHIMURIUM, Strain/Indicator: TA1535, Metabolic Activation: RAT, LIVER, S-9, AROCLOR 1254 (10%), Method: PREINCUBATION); “inactive; negative” (Test System: AMES SALMONELLA TYPHIMURIUM, Strain/Indicator: TA1535, Metabolic Activation: RAT, LIVER, S-9, AROCLOR 1254 (30%), Method: PREINCUBATION); “inactive; negative” (Test System: AMES SALMONELLA TYPHIMURIUM, Strain/Indicator: TA1537, Metabolic Activation: HAMSTER, LIVER, S-9, AROCLOR 1254 (10%), Method: PREINCUBATION); “inactive; negative” (Test System: AMES SALMONELLA TYPHIMURIUM, Strain/Indicator: TA1537, Metabolic Activation: NONE, Method: PREINCUBATION); “inactive; negative” (Test System: AMES SALMONELLA TYPHIMURIUM, Strain/Indicator: TA1537, Metabolic Activation: RAT, LIVER, S-9, AROCLOR 1254 (10%), Method: PREINCUBATION).

For the compound `COCC(O)Cn1cc([N+](=O)[O-])nc1C` (stereo not drawn), the mutagenic call reads like this: (Test System: E. COLI, Strain/Indicator: CM561 EXRA, Metabolic Activation: NONE, Method: SUSPENSION/PLATE) “active; positive”; (Test System: E. COLI, Strain/Indicator: CM561 EXRA, Metabolic Activation: RAT, LIVER, S-9, AROCLOR 1254, Method: SUSPENSION/PLATE) “inactive; negative”; (Test System: E. COLI, Strain/Indicator: CM611 UVRA EXRA, Metabolic Activation: NONE, Method: SUSPENSION/PLATE) “active; positive”; (Test System: E. COLI, Strain/Indicator: CM611 UVRA EXRA, Metabolic Activation: RAT, LIVER, S-9, AROCLOR 1254, Method: SUSPENSION/PLATE) “active; positive”.

With `C=CCO`, the mutagenic call is “active; positive (structural changes and ploidy). toxicity at 0.008 mg/ml” (End Point: In vitro chromosomal aberrations, Test System: Chinese hamster lung (CHL/IU) cells, Metabolic Activation: Rat, Liver, S9, Phenobarbital and 5,6-benzoflavone); “active; positive” (Test System: CHINESE HAMSTER V-79, Strain/Indicator: V-79/6-THIOGUANINE, Metabolic Activation: NONE); “active; positive. reevaluation of results: positive” (Test System: MOUSE LYMPHOMA, Strain/Indicator: L5178Y (TK+/TK-), Metabolic Activation: NONE, Method: SUSPENSION/PLATE); “inactive; negative” (Test System: Mouse lymphoma, Strain/Indicator: L5178Y (tk+/tk-), Metabolic Activation: Rat, Liver, S-9, Aroclor 1254, Method: Suspension/plate).

With `O=Nc1ccc2ccc3cc4ccccc4c4ccc1c2c34`, the mutagenic call was “active; positive” (Test System: AMES SALMONELLA TYPHIMURIUM, Strain/Indicator: TA98 (1,8-DNP6), Metabolic Activation: NONE, Method: STANDARD PLATE); “active; positive” (Test System: AMES SALMONELLA TYPHIMURIUM, Strain/Indicator: TA98 (NR), Metabolic Activation: NONE, Method: STANDARD PLATE); “active; positive” under setting [1]; “active; positive” (Test System: CHINESE HAMSTER OVARY, Strain/Indicator: CHO-K1-BH4 (HGPRT), Metabolic Activation: NONE).

Regarding `COc1ccc2c(OC)c3ccoc3nc2c1`, the mutagenic call runs as follows: (Test System: AMES SALMONELLA TYPHIMURIUM, Strain/Indicator: TA98, Metabolic Activation: RAT, LIVER, S-9, PHENOBARBITAL, Method: STANDARD PLATE) “active; positive”; (Test System: AMES SALMONELLA TYPHIMURIUM, Strain/Indicator: TA100, Metabolic Activation: RAT, LIVER, S-9, PHENOBARBITAL, Method: STANDARD PLATE) “active; positive”.

Turning to `Cl/C=C(\Cl)c1c(Cl)c(Cl)c(Cl)c(Cl)c1Cl`, the mutagenic call reads like this: under setting [1], “inactive; negative”; (Test System: AMES SALMONELLA TYPHIMURIUM, Strain/Indicator: TA98, Metabolic Activation: RAT, LIVER, S-9, AROCLOR 1254, Method: STANDARD PLATE) “inactive; negative”; (Test System: AMES SALMONELLA TYPHIMURIUM, Strain/Indicator: TA100, Metabolic Activation: NONE, Method: STANDARD PLATE) “inactive; negative”; (Test System: AMES SALMONELLA TYPHIMURIUM, Strain/Indicator: TA100, Metabolic Activation: RAT, LIVER, S-9, AROCLOR 1254, Method: STANDARD PLATE) “inactive; negative”.

For the origin of these results see PubChem BioAssay AID1259407 (Chemical Carcinogenesis Research Information System (CCRIS), 2018).
